Measurements from patent publication EP2210885A1, “Substituted heteroarylpiperidine derivatives as melanocortin-4 receptor modulators” (Santhera Pharmaceuticals (Schweiz) AG, priority 2009, dated 2010).

Assays:
[1] = target: T1, hMC-4R (Homo sapiens, UniProt P32245); test: hMC-4R membrane binding assay (fluorescence polarization, competition with fluorescence labeled NDP-alpha-MSH); conditions: HEK293 cell membrane preparations expressing human melanocortin receptors; values grouped in classes
T1 construct: expressed in transfected cells; host or cells: HEK293 cell membrane preparations
Experimental: A membrane binding assay is used to identify competitive inhibitors of fluorescence labeled NDP-alpha-MSH binding to HEK293 cell membrane preparations expressing human melanocortin receptors.
The test compound or unlabeled NDP-alpha-MSH is dispensed at varying concentrations to a 384 well microtiter plate. Fluorescence labeled NDP-alpha-MSH is dispensed at a single concentration, followed by addition of membrane preparations. The plate is incubated for 5 h at room temperature.
The degree of fluorescence polarization is determined with a fluorescence polarization microplate reader.

[2] = target: T1, hMC-4R; test: hMC-4R functional assay (membrane based cAMP fluorescence polarization, agonistic activity); type: biochemical; conditions: cAMP produced compared to stimulation with NDP-alpha-MSH
Experimental: Agonistic activity of human melanocortin receptors is determined in a homogeneous membrane based assay.
The test compound or unlabeled NDP-alpha-MSH is dispensed at varying concentrations to a 384 well microtiter plate. Membrane preparations from HEK293 cells expressing the human melanocortin receptors are added. After a short preincubation period, an appropriate amount of ATP, GTP and the cAMP antibody is added and the plate is further incubated before the fluorescence labeled cAMP conjugate is dispensed. The plate is incubated for 2 h at 4°C before it is read on a fluorescence polarization microplate reader. The amount of cAMP produced as a response to a test compound is compared to the production of cAMP resulting from stimulation with NDP-alpha-MSH.

T1 sequence (P32245 whole entry): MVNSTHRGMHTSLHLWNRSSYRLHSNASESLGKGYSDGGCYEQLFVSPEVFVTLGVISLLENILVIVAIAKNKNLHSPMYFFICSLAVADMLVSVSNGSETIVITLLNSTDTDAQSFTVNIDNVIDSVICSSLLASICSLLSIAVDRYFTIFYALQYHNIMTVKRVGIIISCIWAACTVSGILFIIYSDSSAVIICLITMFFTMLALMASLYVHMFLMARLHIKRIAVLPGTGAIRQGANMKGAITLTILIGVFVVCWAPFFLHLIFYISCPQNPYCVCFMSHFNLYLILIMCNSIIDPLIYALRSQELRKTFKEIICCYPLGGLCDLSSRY

| Compound | IC50 [1] [µM] | % activation functional assay [2] [%] |
| --- | --- | --- |
| CC[C@H](COc1cccnc1C1CCN(C(=O)[C@@H](Cc2ccc(Cl)cc2Cl)NC(=O)OC2CCCC2)CC1)N(C)C [Example 3] | 0.1 to 1 | 0 |
| CCOC(=O)N[C@H](Cc1ccc(Cl)cc1Cl)C(=O)N1CCC(c2ncccc2OC[C@@H](CC)N(C)C)CC1 [Example 1] | ≤ 0.1 | -6 |
| CCC(COc1cccnc1C1CCN(C(=O)C(Cc2ccc(Cl)cc2Cl)NC(=O)OC(C)C)CC1)N(C)C (stereo not drawn) [Example 2] | ≤ 0.1 | 4 |
